# From PMC13210772, “Dual FLT3/MAPK14 Proteolysis-Targeting Chimera (PROTAC) Induces Potent Acute Myeloid Leukemia Cell Death” (Pharmaceuticals, 2026)
# Tests used:
# in vitro = conditions: CD-1, mouse, liver microsomes, pH 7.4
# [1] = Metabolic stability in liver microsomes
# [2] = Non-enzymatic stability under cellular assay conditions (HPLC); format: physicochemical; conditions: compound remaining, assay medium DMEM, 37 °C
# Description: An important aspect in the development of PROTACs is testing chemical stability. On the one hand, we tested all PROTACs produced for their stability under cellular assay conditions. For this purpose, 10 µM solutions of the PROTACs and reference inhibitor were incubated for 72 h at 37 °C with the assay medium DMEM. The remaining amount of the compounds was determined by HPLC after 6, 12, 24, 48 and 72 h. The results of the stability studies are shown in Table S2 (Supplementary Information).
# The developed compounds were diluted in the assay media consisting of a mixture of DMEM (50%), DMSO (10%) and acetonitrile (40%) at pH 7.4 and incubated at 37 °C for 72 h. The quantity of the compounds was measured after 6, 12, 24, 48, and 72 h by HPLC using an XTerra RP18 column ([…], 3.9 mm × 100 mm) from the manufacturer Waters (Milford, MA, USA) and two LC-10AD pumps, an SPD-M10AVP PDA detector, and an SIL-HT autosampler, all from the manufacturer Shimadzu (Kyoto, Japan).
# FLT3-ITD [3] = molecular target: T1, FLT3-ITD (Homo sapiens, UniProt P36888, INS600HVDFREYEYD); assay: FLT3-ITD degradation, immunoblot in MV4-11 cells; conditions: for inhibition at 0.05 µM: MV4-11, 24 h, read-out: % FLT3-ITD Degradation at 50 nM
# T1 sequence (P36888 with tags, fused parts or gaps INS600HVDFREYEYD): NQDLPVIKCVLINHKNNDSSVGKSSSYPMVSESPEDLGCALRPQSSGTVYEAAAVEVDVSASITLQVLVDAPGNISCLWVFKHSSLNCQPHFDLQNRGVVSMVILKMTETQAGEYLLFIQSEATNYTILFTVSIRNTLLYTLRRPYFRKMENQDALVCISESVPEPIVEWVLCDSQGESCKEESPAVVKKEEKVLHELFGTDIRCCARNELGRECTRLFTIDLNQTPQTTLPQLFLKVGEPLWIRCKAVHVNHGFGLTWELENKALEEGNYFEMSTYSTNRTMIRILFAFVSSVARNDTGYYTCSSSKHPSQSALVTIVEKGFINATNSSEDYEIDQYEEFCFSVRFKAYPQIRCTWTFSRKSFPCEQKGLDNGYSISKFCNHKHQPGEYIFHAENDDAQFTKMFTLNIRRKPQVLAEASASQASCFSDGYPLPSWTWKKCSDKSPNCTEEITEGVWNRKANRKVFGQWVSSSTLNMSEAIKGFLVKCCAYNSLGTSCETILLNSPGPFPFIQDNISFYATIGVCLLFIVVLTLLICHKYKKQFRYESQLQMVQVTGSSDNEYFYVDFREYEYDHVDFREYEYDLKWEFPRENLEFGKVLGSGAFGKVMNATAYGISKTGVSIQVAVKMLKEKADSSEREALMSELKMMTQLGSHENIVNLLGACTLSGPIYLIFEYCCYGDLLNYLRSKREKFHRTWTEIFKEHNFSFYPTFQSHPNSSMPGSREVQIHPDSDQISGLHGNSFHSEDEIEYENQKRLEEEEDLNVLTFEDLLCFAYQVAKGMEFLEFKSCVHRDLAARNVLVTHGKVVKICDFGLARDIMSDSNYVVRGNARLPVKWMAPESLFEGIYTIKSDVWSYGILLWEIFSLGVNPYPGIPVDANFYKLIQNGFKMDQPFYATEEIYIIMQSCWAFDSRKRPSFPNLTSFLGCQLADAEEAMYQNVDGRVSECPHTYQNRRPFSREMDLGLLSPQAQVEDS
# FLT3-ITD [4] = assay: KINOMEscan binding assay
# Description: Binding to FLT3-ITD was determined using the KINOMEscan^TM assay (Eurofins DiscoverX Corporation, San Diego, CA, USA)
# Kinase-tagged T7 phage strains were prepared in an E. coli host derived from the BL21 strain. E. coli were grown to log-phase and infected with T7 phage and incubated with shaking at 32 °C until lysis. The lysates were centrifuged and filtered to remove cell debris. The remaining kinases were produced in HEK-293 cells and subsequently tagged with DNA for qPCR detection. […] The liganded beads were blocked with excess biotin and washed with blocking buffer (SeaBlock (Pierce), 1% BSA, 0.05% Tween 20, 1 mM DTT) to remove unbound ligand and to reduce non-specific binding. […] The compounds were then diluted directly into the assays such that the final concentration of DMSO was 0.9%. All reactions performed in polypropylene 384-well plate. Each was a final volume of 0.02 mL. […] The kinase concentration in the eluates was measured by qPCR.
0 h - % [2],6 h- % [2],12 h- % [2],24 h- % [2],48 h- % [2],72 h- % [2],inhibition at 0.05 µM (FLT3-ITD [3]),% FLT3-ITD Binding at 1 µM (FLT3-ITD [4]),SMILES,other results
–,–,–,–,–,–,–,–,"O=C(O)Cc1ccccc1Nc1c(Cl)cccc1Cl [Diclofenac, Diclofenac sodium, reference compound]","remaining at 10 min, 25 µM (in vitro): 94.7 ± 1.7%; remaining at 0.5 h, 25 µM (in vitro): 78%; remaining at 1 h, 25 µM (in vitro): 73%; remaining at 2 h, 25 µM (in vitro): 59%; 0 min—Compound Remaining % ([1]; mouse (CD-1) liver microsomes, 25 μM, 0 min): 100%; 30 min—Compound Remaining % ([1]; mouse (CD-1) liver microsomes, 25 μM, 30 min): 79.0 ± 1.3%; 120 min—Compound Remaining % ([1]; mouse (CD-1) liver microsomes, 25 μM, 120 min): 60.8 ± 2.2%; 0 min - compound remaining % ([1]; single runs A and B (Table S3), 0 min): 100%; 10 min - compound remaining % ([1]; single runs A and B (Table S3), 10 min): 96%; 30 min - compound remaining % ([1]; single runs A and B (Table S3), 30 min, listed as Diclofenac_A): 80%"
100%,99.7%,100.0%,100.2%,100.8%,101.0%,30%,–,"Cc1ncsc1-c1ccc([C@H](C)NC(=O)[C@@H]2C[C@@H](O)CN2C(=O)[C@@H](NC(=O)CCCCCCCNC(=O)c2cc(Oc3ccc(NC(=O)Nc4cccc(C(F)(F)F)c4)cc3)ccn2)C(C)(C)C)cc1 [MA42, N-(8-(((S)-1-((2S,4R)-4-Hydroxy-2-(((S)-1-(4-(4-methylthiazol-5-yl)phenyl)ethyl)carbamoyl)-pyrrolidin-1-yl)-3,3-dimethyl-1-oxobutan-2-yl)amino)-8-oxooctyl)-4-(4-(3-(3-(trifluoromethyl)phenyl)ureido)phenoxy)picolinamide]","FLT3-ITD degradation (FLT3-ITD [3]; MV4-11 cells, 50 nM, 24 h): no significant degradation"
100%,100.1%,100.3%,100.5%,101.0%,101.2%,20%,–,"Cc1ncsc1-c1ccc([C@H](C)NC(=O)[C@@H]2C[C@@H](O)CN2C(=O)[C@@H](NC(=O)CCCCCNC(=O)c2cc(Oc3ccc(NC(=O)Nc4cccc(C(F)(F)F)c4)cc3)ccn2)C(C)(C)C)cc1 [MA43, N-(6-(((S)-1-((2S,4R)-4-Hydroxy-2-(((S)-1-(4-(4-methylthiazol-5-yl)phenyl)ethyl)carbamoyl)-pyrrolidin-1-yl)-3,3-dimethyl-1-oxobutan-2-yl)amino)-6-oxohexyl)-4-(4-(3-(3-(trifluoromethyl)phenyl)ureido)phenoxy)picolinamide]","FLT3-ITD degradation (FLT3-ITD [3]; MV4-11 cells, 50 nM, 24 h): no significant degradation"
100%,101.2%,101.3%,102.2%,103.3%,106.1%,80%,84 ± 1%,"Cc1ncsc1-c1ccc([C@H](C)NC(=O)[C@@H]2C[C@@H](O)CN2C(=O)[C@@H](NC(=O)CCCCCCCNC(=O)c2cc(Oc3ccc(NC(=O)Nc4cc(C(C)(C)C)on4)cc3)ccn2)C(C)(C)C)cc1 [MA73, 4-(4-(3-(5-(tert-Butyl)isoxazol-3-yl)ureido)phenoxy)-N-(8-(((S)-1-((2S,4R)-4-hydroxy-2-(((S)-1-(4-(4-methylthiazol-5-yl)phenyl)ethyl)carbamoyl)pyrrolidin-1-yl)-3,3-dimethyl-1-oxobutan-2-yl)amino)-8-oxooctyl)picolinamide]",–
100%,101.4%,101.4%,101.8%,102.6%,103.1%,90%,89 ± 2%,"Cc1ncsc1-c1ccc([C@H](C)NC(=O)[C@@H]2C[C@@H](O)CN2C(=O)[C@@H](NC(=O)CCOCCOCCNC(=O)c2cc(Oc3ccc(NC(=O)Nc4cc(C(C)(C)C)on4)cc3)ccn2)C(C)(C)C)cc1 [MA74, 4-(4-(3-(5-(tert-Butyl)isoxazol-3-yl)ureido)phenoxy)-N-(2-(2-(3-(((S)-1-((2S,4R)-4-hydroxy-2-(((S)-1-(4-(4-methylthiazol-5-yl)phenyl)ethyl)carbamoyl)pyrrolidin-1-yl)-3,3-dimethyl-1-oxobutan-2-yl)amino)-3-oxopropoxy)ethoxy)ethyl)picolinamide]",–
100%,99.6%,99.6%,99.9%,100.5%,100.7%,80%,89 ± 2%,"Cc1ncsc1-c1ccc([C@H](C)NC(=O)[C@@H]2C[C@@H](O)CN2C(=O)[C@@H](NC(=O)CCCCCCNC(=O)c2cc(Oc3ccc(NC(=O)Nc4cc(C(C)(C)C)on4)cc3)ccn2)C(C)(C)C)cc1 [MA77, 4-(4-(3-(5-(tert-Butyl)isoxazol-3-yl)ureido)phenoxy)-N-(7-(((S)-1-((2S,4R)-4-hydroxy-2-(((S)-1-(4-(4-methylthiazol-5-yl)phenyl)ethyl)carbamoyl)pyrrolidin-1-yl)-3,3-dimethyl-1-oxobutan-2-yl)amino)-7-oxoheptyl)picolinamide]",–
100%,99.5%,99.5%,99.9%,100.6%,101.0%,80%,89 ± 2%,"Cc1ncsc1-c1ccc([C@H](C)NC(=O)[C@@H]2C[C@@H](O)CN2C(=O)[C@@H](NC(=O)CCCCCNC(=O)c2cc(Oc3ccc(NC(=O)Nc4cc(C(C)(C)C)on4)cc3)ccn2)C(C)(C)C)cc1 [MA78, 4-(4-(3-(5-(tert-Butyl)isoxazol-3-yl)ureido)phenoxy)-N-(6-(((S)-1-((2S,4R)-4-hydroxy-2-(((S)-1-(4-(4-methylthiazol-5-yl)phenyl)ethyl)carbamoyl)pyrrolidin-1-yl)-3,3-dimethyl-1-oxobutan-2-yl)amino)-6-oxohexyl)picolinamide]",–
–,–,–,–,–,–,–,–,"Cc1ncsc1-c1ccc([C@H](C)NC(=O)[C@H]2C[C@H](O)CN2C(=O)[C@@H](NC(=O)[C@H]2CC[C@H](C(=O)N3CCC(CCNC(=O)c4cc(Oc5ccc(NC(=O)Nc6cc(C(C)(C)C)on6)cc5)ccn4)CC3)CC2)C(C)(C)C)cc1 [MA224, 4-(4-(3-(5-(tert-Butyl)isoxazol-3-yl)ureido)phenoxy)-N-(2-(1-(trans-4-(((S)-1-((2R,4S)-4-hydroxy-2-(((S)-1-(4-(4-methylthiazol-5-yl)phenyl)ethyl)carbamoyl)pyrrolidin-1-yl)-3,3-dimethyl-1-oxobutan-2-yl)carbamoyl)cyclohexanecarbonyl)piperidin-4-yl)ethyl)picolinamide]","% FLT3-ITD Degradation at 50 nM (FLT3-ITD [3]; MV4-11 cells, 50 nM, 24 h): No effect"
–,–,–,–,–,–,–,–,"NS(=O)(=O)OC[C@@H]1C[C@@H](n2ccc3c(N[C@H]4CCc5ccccc54)ncnc32)C[C@@H]1O [MLN4924, reference compound]","rescue of MA191-mediated degradation (FLT3-ITD [3]; 50 nM MA191 ± 3 µM MLN4924, 6 h, MV4-11 and MOLM-13 cells): prevented the MA191-mediated degradation of FLT3-ITD as well as MAPK14"
